Source: a compilation of properties of binary mixtures (doi:10.1016/j.molliq.2020.114720)

Experiment: xn = mol fraction of the nth substance listed
Settings: 101 kPa

CC(=O)[O-].CCCCC[n+]1ccccc1 + O
electrical conductivity [S/m]
Settings	x1 = 0.9143	x1 = 0.9163	x1 = 0.9314	x1 = 0.948	x1 = 0.9673	x2 = 0.0023
293.15 K	0.0061	–	–	0.0049	0.0043	0.0034
298.15 K	0.0106	–	0.0094	–	0.007	0.0053
303.15 K	0.0175	0.0173	–	0.0128	0.0112	0.0081
308.15 K	0.024	–	–	0.0185	0.0162	0.0121
313.15 K	0.036	–	0.0335	0.029	0.0245	0.0179
318.15 K	0.051	–	0.0438	–	–	0.0266
323.15 K	0.071	–	0.0623	0.0532	0.0459	–
328.15 K	0.093	0.092	–	0.0715	0.061	0.045
333.15 K	–	0.125	0.111	0.095	0.0805	0.0572
338.15 K	–	0.171	0.151	–	0.109	0.0766
343.15 K	0.226	0.222	–	0.17	0.138	0.0955
